Measured values as given in paper PMC5073322, “Novel Natural Product-like Caged Xanthones Bearing a Carbamate Moiety Exhibit Antitumor Potency and Anti-Angiogenesis Activity In vivo” (Scientific Reports, 2016).
≈ marks a conversion by molar mass, not a printed value. Read-outs that look alike come from different tables or passages of the source.

Assays:
HCT116 = assay: MTT antiproliferative assay, HCT116
Procedure: (§2) The inhibition of tumour cell growth was measured by a modified tetrazolium (MTT) salt assay, as previously described[39]. Cells were cultured in a 96-well plate and treated with culture medium alone or different concentrations of the compounds. The cells were incubated for 72 h, and then, the MTT assay reagent was added. After a 4 h incubation, the formazan product was quantitated at 570 nm. The IC50 values (the concentrations that gave rise to 50% inhibition of cell viability) were calculated using GraphPad Prism 6 using a variable slope (four parameters).

MDA-MB-231 = assay: MTT antiproliferative assay, MDA-MB-231
Procedure: as §2

Water solubility by HPLC = type: physicochemical; conditions: for solubility: thermodynamic from solid
From the text: The physicochemical characteristics of compounds directly determine their potential drug-like properties. Assessing a compound’s physicochemical properties before performing in vivo evaluations can guide further studies and minimize the time and cost associated with drug discovery. Therefore, parallel to the in vivo study, these solubilities of these compounds in water were experimentally measured using high-performance liquid chromatography (HPLC). Based on the results of full wave scanning, 290 nm was chosen as the maximum absorption wavelength for HPLC detection.
(§1) A HPLC system with an ultraviolet (UV) detector was used to detect the solubility of the compounds. The optimal wavelength was 290 nm. Ethanol/water (85:15) was an efficient eluent at a flow rate of 0.5 mL/min. The compounds were stirred in deionized water overnight to maximize the retention of the compounds in solution. Then, the solutions were filtered and the supernatant was used as a fluid sample for HPLC detection. The permeability (Pe) of some of the compounds was tested with the help of a standard PAMPA (pION), as previously reported. PAMPA was performed on a PAMPA Explorer instrument (pION, Inc., Woburn, MA) with the PAMPA Explorer command software (Version 3.7.4.1). The compounds were diluted to 10 mM with the system solution buffer (pH 7.4). Then, 150 μL of the diluted compound solution was transferred to a UV plate, and the UV spectrum was collected and used as a reference. Then, paint the membrane with 5 μL of gastrointestinal tract (GIT) lipid. The acceptor chamber was filled with 200 μL of acceptor solution buffer, and the donor chamber was filled with 200 μL of diluted compound solution. The PAMPA sandwich was assembled and left at 25 °C for 4 h. The UV spectra (240–500 nm) from the donor and the acceptor were collected. The permeability coefficient was calculated with the PAMPA Explorer Command software (Version 3.7.4.1) based on the area under the curve (AUC) of the reference plate, the donor plate, and the acceptor plate. The permeability coefficient of the compound was tested for four times, and the data are shown as the average values. Ketoprofen (4.5×10^−6 cm/s) and propranolol (112.8×10^−6 cm/s) were used as the standards in this assay.

HepG2 = assay: MTT antiproliferative assay, HepG2
Procedure: as §2

A549 = assay: MTT antiproliferative assay, A549
Procedure: as §2

A549/taxol = assay: MTT antiproliferative assay, Taxol-resistant A549; type: cell-based; conditions: for IC50: 72 h, Taxol-resistant A549
Procedure: as §2

A549/cisplatin = assay: MTT antiproliferative assay, cisplatin-resistant A549; type: cell-based
Procedure: as §2

[1] = Parallel artificial membrane permeability assay (PAMPA); type: in vitro ADME; conditions: for permeability relative to DDO-6101 and GA: PAMPA, different pH values (Fig. 5); for permeability coefficient (Pe): PAMPA standards, 25 °C, 4 h
Procedure: Permeability is another important property that reflects the ability of molecules to diffuse through cell membranes. The permeability coefficients were determined using a standard parallel artificial membrane permeability assay (PAMPA) on a PAMPA Explorer instrument (Pion, Inc., MA, USA)[34].
as §1, with “The compounds were diluted to 10 mM with the system solution buffer (pH 7.4).” left out

[2] = Homo sapiens, HCT-116, 72 h, read-out: IC50 HCT116
[3] = Homo sapiens, MDA-MB-231, 72 h, read-out: IC50 MDA-MB-231
[4] = deionized water, stirred overnight, HPLC 290 nm, read-out: S, water solubility
[5] = Homo sapiens, HepG2, 72 h, read-out: IC50 HepG2
[6] = Homo sapiens, HCT-116, 72 h, read-out: IC50 HCT116, MTT, 72 h
[7] = Homo sapiens, A549, 72 h, read-out: IC50 A549, MTT, 72 h
[8] = Homo sapiens, MDA-MB-231, 72 h, read-out: IC50 MDA-MB-231, MTT, 72 h
[9] = A549/Taxol, read-out: IC50 A549/taxol, MTT, 72 h
[10] = Homo sapiens, A549, 72 h, read-out: IC50 A549/cisplatin, MTT, 72 h
[11] = water, deionized water, stirred overnight, HPLC 290 nm, read-out: S, water solubility
[12] = Homo sapiens, HepG2, 72 h, read-out: IC50 HepG2, MTT, 72 h
[13] = Homo sapiens, A549, 72 h, read-out: IC50 A549
[14] = Homo sapiens, MTT, 72 h, read-out: IC50 A549/cisplatin
[15] = read-out: IC50 HCT116, MTT, 72 h
[16] = deionized water, stirred overnight, HPLC 290 nm
[17] = read-out: IC50 HepG2, MTT, 72 h
[18] = read-out: IC50 A549/cisplatin, MTT, 72 h

IC50 (HCT116; [2]) [nM]	IC50 (MDA-MB-231; [3]) [nM]	solubility (Water solubility by HPLC; [4]) [µM]	IC50 (HepG2; [5]) [nM]	IC50 (A549; [13]) [nM]	IC50 (A549/taxol; MTT, read-out: IC50 A549/taxol) [nM]	IC50 (A549/cisplatin; [14]) [nM]	SMILES	also measured
710 ± 40	580 ± 40	40 (≈ 19.7 µg/mL)	2310 ± 180	9810 ± 170	530 ± 80	1480 ± 250	CC(C)=CCC12OC(C)(C)C3CC(C=C4C(=O)c5c(OC(=O)N6CCOCC6)cccc5OC431)C2=O (stereo not drawn) [Compound 8d]	permeability relative to DDO-6101 and GA [1]: improved the permeability
1060 ± 90	4400 ± 1500	40 (≈ 19.1 µg/mL)	990 ± 10	8630 ± 190	12400 ± 290	5680 ± 150	CC(C)=CCC12OC(C)(C)C3CC(C=C4C(=O)c5c(OC(=O)N6CCCC6)cccc5OC431)C2=O (stereo not drawn) [Compound 8e]	
1020 ± 70	870 ± 160	50 (≈ 24.6 µg/mL)	950 ± 90	2930 ± 20	1450 ± 180	2980 ± 170	CC(C)=CCC12OC(C)(C)C3CC(C=C4C(=O)c5c(OC(=O)N6CCCCC6)cccc5OC431)C2=O (stereo not drawn) [Compound 8f]	
3150 ± 220	6800 ± 700	20 (≈ 9.51 µg/mL)	1750 ± 280	8450 ± 200	1100 ± 160	6700 ± 180	CC(C)=CCC12OC(C)(C)C3CC(C=C4C(=O)c5c(OC(=O)N6CC=CC6)cccc5OC431)C2=O (stereo not drawn) [Compound 8h]	
1080 ± 20	1000 ± 100	20 (≈ 9.91 µg/mL)	1610 ± 180	3380 ± 20	820 ± 80	1800 ± 100	CC(C)=CCC12OC(C)(C)C3CC(C=C4C(=O)c5c(OC(=O)N6CCSC6)cccc5OC431)C2=O (stereo not drawn) [Compound 8i]	permeability relative to DDO-6101 and GA [1]: improved the permeability

Further lines, the molecule ahead of its results:

SMILES	IC50 (HCT116; [2]) [nM]	IC50 (MDA-MB-231; [3]) [nM]	solubility (Water solubility by HPLC; [4]) [µM]	IC50 (HepG2; [5]) [nM]	IC50 (A549; [13]) [nM]	IC50 (A549/taxol; MTT, read-out: IC50 A549/taxol) [nM]	IC50 (A549/cisplatin; [14]) [nM]	also measured
CC(C)=CCC12OC(C)(C)C3CC(C=C4C(=O)c5c(cccc5OS(C)(=O)=O)OC431)C2=O (stereo not drawn) [Compound 2]	2120 ± 140	2000 ± 70	20 (≈ 9.17 µg/mL)	1410 ± 60				
CCOC(=O)COc1cccc2c1C(=O)C1=CC3CC4C(C)(C)OC(CC=C(C)C)(C3=O)C14O2 (stereo not drawn) [Compound 4]	8130 ± 730	5420 ± 570	10 (≈ 4.67 µg/mL)	12700 ± 970				
CC(C)=CCC12OC(C)(C)C3CC(C=C4C(=O)c5c(OCC(=O)O)cccc5OC431)C2=O (stereo not drawn) [Compound 5]	> 10000	> 10000	30 (≈ 13.2 µg/mL)	> 10000				
CC(C)=CCC12OC(C)(C)C3CC(C=C4C(=O)c5c(OC(=O)N(C)C)cccc5OC431)C2=O (stereo not drawn) [Compound 8a]								IC50 (HCT116; [6]): 2320 ± 210 nM; IC50 (A549; [7]): 3090 ± 140 nM; IC50 (MDA-MB-231; [8]): 170 ± 40 nM; IC50 (A549/taxol; [9]): 650 ± 80 nM; IC50 (A549/cisplatin; [10]): 1100 ± 100 nM; solubility (Water solubility by HPLC; [11]): 60 µM (≈ 27.1 µg/mL); IC50 (HepG2; [12]): 1730 ± 430 nM
CCN(CC)C(=O)Oc1cccc2c1C(=O)C1=CC3CC4C(C)(C)OC(CC=C(C)C)(C3=O)C14O2 (stereo not drawn) [Compound 8b]	2870 ± 70	470 ± 70	30 (≈ 14.4 µg/mL)	1880 ± 140	2860 ± 20	680 ± 80	1460 ± 90	permeability relative to DDO-6101 and GA [1]: improved the permeability
CCN(C)C(=O)Oc1cccc2c1C(=O)C1=CC3CC4C(C)(C)OC(CC=C(C)C)(C3=O)C14O2 (stereo not drawn) [Compound 8c]								IC50 (HCT116; [6]): 2750 ± 140 nM; IC50 (A549; [7]): 3050 ± 580 nM; IC50 (MDA-MB-231; [8]): 250 ± 120 nM; IC50 (A549/taxol; [9]): 660 ± 160 nM; IC50 (A549/cisplatin; [10]): 1480 ± 140 nM; solubility (Water solubility by HPLC; [11]): 30 µM (≈ 14 µg/mL); IC50 (HepG2; [12]): 2560 ± 190 nM
CC(C)=CCC12OC(C)(C)C3CC(C=C4C(=O)c5c(OC(=O)N(CCO)CCO)cccc5OC431)C2=O (stereo not drawn) [Compound 8j]	4140 ± 50	6200 ± 110	60 (≈ 30.7 µg/mL)	5210 ± 10	10240 ± 100	4250 ± 700	3780 ± 110	
CC(C)=CCC12OC(C)(C)C3CC(C=C4C(=O)c5c(OC(=O)N(C(C)C)C(C)C)cccc5OC431)C2=O (stereo not drawn) [Compound 8k]	4490 ± 770	9100 ± 120	30 (≈ 15.2 µg/mL)	4760 ± 220	8960 ± 900	6720 ± 530	2000 ± 470	
CC(C)=CCC12OC(C)(C)C3CC(C=C4C(=O)c5c(OC(=O)N6CCC(N7CCCCC7)CC6)cccc5OC431)C2=O (stereo not drawn) [Compound 8l]								IC50 (HCT116; [15]): 2490 ± 330 nM; IC50 (A549; [7]): 10000 ± 2100 nM; IC50 (MDA-MB-231; [8]): 880 ± 50 nM; fold higher activity against the resistant A549 cell line than A549 (A549/taxol; Taxol-resistant and cisplatin-resistant A549 versus A549): 10–15 fold; IC50 (A549/taxol; read-out: IC50 A549/taxol, MTT): 610 ± 40 nM; IC50 (A549/cisplatin; [10]): 980 ± 130 nM; permeability relative to DDO-6101 and GA [1]: improved the permeability; S, water solubility (Water solubility by HPLC; [16]): 80 µM; IC50 (HepG2; [17]): 340 ± 270 nM
CC(C)=CCC12OC(C)(C)C3CC(C=C4C(=O)c5c(OC(=O)N6CCN(C)CC6)cccc5OC431)C2=O (stereo not drawn) [Compound 8m]								IC50 (HCT116; [6]): 8150 ± 700 nM; IC50 (A549; [7]): 9970 ± 2460 nM; IC50 (MDA-MB-231; [8]): 760 ± 90 nM; IC50 (A549/taxol; read-out: IC50 A549/taxol, MTT): 1100 ± 50 nM; IC50 (A549/cisplatin; [18]): 380 ± 70 nM; S, water solubility (Water solubility by HPLC; [16]): 640 µM; IC50 (HepG2; [17]): 1360 ± 710 nM
CC(C)=CCC12OC(C)(C)C3CC(C=C4C(=O)c5c(OC(=O)N6CCN(C)CC6)cccc5OC431)C2=O (stereo not drawn) [Compound 8o]								IC50 (HCT116; [15]): 9820 ± 680 nM; IC50 (A549; read-out: IC50 A549, MTT, 72 h): 14900 ± 3600 nM; IC50 (MDA-MB-231; read-out: IC50 MDA-MB-231, MTT, 72 h): 660 ± 70 nM; IC50 (A549/taxol; read-out: IC50 A549/taxol, MTT): 510 ± 50 nM; IC50 (A549/cisplatin; [18]): 1140 ± 140 nM; S, water solubility (Water solubility by HPLC; [16]): >40000 µM; IC50 (HepG2; [17]): 2800 ± 210 nM
COc1cccc2c1C(=O)c1c(O)c3c(c(O)c1C2=O)C[C@@](O)(C(=O)CO)C[C@@H]3O[C@H]1C[C@H](N)[C@H](O)[C@H](C)O1 [Doxorubicin, reference compound]	400 ± 40	490 ± 50		280 ± 10	170 ± 20	240 ± 20	190 ± 20	
CC(C)=CCC[C@]1(C)C=Cc2c(O)c3c(c(CC=C(C)C)c2O1)O[C@]12C(=C[C@@H]4C[C@H]1C(C)(C)O[C@@]2(C/C=C(/C)C(=O)O)C4=O)C3=O [GA, gambogic acid, reference compound]	340 ± 80	1500 ± 50		2080 ± 70	2020 ± 20	290 ± 40	2500 ± 60	solubility (Water solubility by HPLC; water): < 5 µM
CC(C(=O)O)c1cccc(C(=O)c2ccccc2)c1 (stereo not drawn) [Ketoprofen, reference compound]								permeability coefficient (Pe) [1]: 4.5 ×10⁻⁶ cm/s
CC(C)NCC(O)COc1cccc2ccccc12 (stereo not drawn) [propranolol, reference compound]								permeability coefficient (Pe) [1]: 112.8 ×10⁻⁶ cm/s
